Test results: PubChem BioAssay AID1259407 (Chemical Carcinogenesis Research Information System (CCRIS), 2018)
Calls of active or inactive are those of the source. How the calls were made is not given here.

System: CCRIS mutagenicity, Ames/micronucleus/aberration tests
Test: CCRIS mutagenicity studies
[1] = Test System: AMES SALMONELLA TYPHIMURIUM, Strain/Indicator: TA98, Metabolic Activation: RAT, LIVER, S-9, AROCLOR 1254, Method: STANDARD PLATE
[2] = Test System: AMES SALMONELLA TYPHIMURIUM, Strain/Indicator: TA100, Metabolic Activation: NONE, Method: STANDARD PLATE
[3] = Test System: AMES SALMONELLA TYPHIMURIUM, Strain/Indicator: TA100, Metabolic Activation: RAT, LIVER, S-9, AROCLOR 1254, Method: STANDARD PLATE
[4] = Test System: AMES SALMONELLA TYPHIMURIUM, Strain/Indicator: TA1535, Metabolic Activation: NONE, Method: STANDARD PLATE
[5] = Test System: AMES SALMONELLA TYPHIMURIUM, Strain/Indicator: TA1537, Metabolic Activation: NONE, Method: STANDARD PLATE
[6] = Test System: AMES SALMONELLA TYPHIMURIUM, Strain/Indicator: TA1537, Metabolic Activation: RAT, LIVER, S-9, AROCLOR 1254, Method: STANDARD PLATE

Nc1ccc(Cl)c(N)c1
mutagenic call (End Point: IN VITRO CHROMOSOMAL ABERRATIONS, Test System: CHL CELLS, Metabolic Activation: RAT, LIVER, S-9, SODIUM PHENOBARBITAL AND 5,6-BENZOFLAVONE): active; positive (structural changes)
mutagenic call (End Point: IN VITRO CHROMOSOMAL ABERRATIONS, Test System: CHO-LB CELLS, Metabolic Activation: RAT, LIVER, S-9, AROCLOR 1254): inactive; negative
mutagenic call (Test System: AMES SALMONELLA TYPHIMURIUM, Strain/Indicator: TA98, Metabolic Activation: HAMSTER, LIVER, S-9, AROCLOR 1254, Method: STANDARD PLATE): active; positive
mutagenic call (Test System: AMES SALMONELLA TYPHIMURIUM, Strain/Indicator: TA98, Metabolic Activation: HAMSTER, LIVER, S-9, Method: STANDARD PLATE): active; positive
mutagenic call (Test System: AMES SALMONELLA TYPHIMURIUM, Strain/Indicator: TA98, Metabolic Activation: MOUSE, LIVER, S-9, AROCLOR 1254, Method: STANDARD PLATE): active; positive
mutagenic call (Test System: AMES SALMONELLA TYPHIMURIUM, Strain/Indicator: TA98, Metabolic Activation: MOUSE, LIVER, S-9, Method: STANDARD PLATE): active; positive
mutagenic call [1]: active; positive
mutagenic call (Test System: AMES SALMONELLA TYPHIMURIUM, Strain/Indicator: TA98, Metabolic Activation: RAT, LIVER, S-9, Method: STANDARD PLATE): active; positive
mutagenic call (Test System: AMES SALMONELLA TYPHIMURIUM, Strain/Indicator: TA100, Metabolic Activation: HAMSTER, LIVER, S-9, AROCLOR 1254, Method: STANDARD PLATE): active; positive
mutagenic call [2]: inactive; negative
mutagenic call [3]: active; positive
mutagenic call (Test System: AMES SALMONELLA TYPHIMURIUM, Strain/Indicator: TA1535, Metabolic Activation: HAMSTER, LIVER, S-9, AROCLOR 1254, Method: STANDARD PLATE): inactive; negative
mutagenic call (Test System: AMES SALMONELLA TYPHIMURIUM, Strain/Indicator: TA1535, Metabolic Activation: HAMSTER, LIVER, S-9, Method: STANDARD PLATE): inactive; negative
mutagenic call (Test System: AMES SALMONELLA TYPHIMURIUM, Strain/Indicator: TA1535, Metabolic Activation: MOUSE, LIVER, S-9, AROCLOR 1254, Method: STANDARD PLATE): inactive; negative
mutagenic call (Test System: AMES SALMONELLA TYPHIMURIUM, Strain/Indicator: TA1535, Metabolic Activation: MOUSE, LIVER, S-9, Method: STANDARD PLATE): inactive; negative
mutagenic call [4]: inactive; negative
mutagenic call (Test System: AMES SALMONELLA TYPHIMURIUM, Strain/Indicator: TA1535, Metabolic Activation: RAT, LIVER, S-9, Method: STANDARD PLATE): inactive; negative
mutagenic call (Test System: AMES SALMONELLA TYPHIMURIUM, Strain/Indicator: TA1537, Metabolic Activation: HAMSTER, LIVER, S-9, AROCLOR 1254, Method: STANDARD PLATE): active; positive
mutagenic call (Test System: AMES SALMONELLA TYPHIMURIUM, Strain/Indicator: TA1537, Metabolic Activation: HAMSTER, LIVER, S-9, Method: STANDARD PLATE): active; positive
mutagenic call (Test System: AMES SALMONELLA TYPHIMURIUM, Strain/Indicator: TA1537, Metabolic Activation: MOUSE, LIVER, S-9, AROCLOR 1254, Method: STANDARD PLATE): active; positive
mutagenic call [5]: inactive; negative
mutagenic call [6]: active; positive
mutagenic call (Test System: AMES SALMONELLA TYPHIMURIUM, Strain/Indicator: TA1537, Metabolic Activation: RAT, LIVER, S-9, Method: STANDARD PLATE): inactive; negative
mutagenic call (Test System: AMES SALMONELLA TYPHIMURIUM, Strain/Indicator: TA1538, Metabolic Activation: HAMSTER, LIVER, S-9, AROCLOR 1254, Method: STANDARD PLATE): active; positive
mutagenic call (Test System: AMES SALMONELLA TYPHIMURIUM, Strain/Indicator: TA1538, Metabolic Activation: HAMSTER, LIVER, S-9, Method: STANDARD PLATE): active; positive
mutagenic call (Test System: AMES SALMONELLA TYPHIMURIUM, Strain/Indicator: TA1538, Metabolic Activation: MOUSE, LIVER, S-9, AROCLOR 1254, Method: STANDARD PLATE): active; positive
mutagenic call (Test System: AMES SALMONELLA TYPHIMURIUM, Strain/Indicator: TA1538, Metabolic Activation: MOUSE, LIVER, S-9, Method: STANDARD PLATE): active; positive
mutagenic call (Test System: AMES SALMONELLA TYPHIMURIUM, Strain/Indicator: TA1538, Metabolic Activation: RAT, LIVER, S-9, AROCLOR 1254, Method: STANDARD PLATE): active; positive
mutagenic call (Test System: AMES SALMONELLA TYPHIMURIUM, Strain/Indicator: TA1538, Metabolic Activation: RAT, LIVER, S-9, Method: STANDARD PLATE): active; positive
mutagenic call (Test System: E. COLI, Strain/Indicator: WP2 UVRA, Metabolic Activation: HAMSTER, LIVER, S-9, AROCLOR 1254, Method: STANDARD PLATE): inactive; negative
mutagenic call (Test System: E. COLI, Strain/Indicator: WP2 UVRA, Metabolic Activation: HAMSTER, LIVER, S-9, Method: STANDARD PLATE): inactive; negative
mutagenic call (Test System: E. COLI, Strain/Indicator: WP2 UVRA, Metabolic Activation: MOUSE, LIVER, S-9, AROCLOR 1254, Method: STANDARD PLATE): inactive; negative
mutagenic call (Test System: E. COLI, Strain/Indicator: WP2 UVRA, Metabolic Activation: MOUSE, LIVER, S-9, Method: STANDARD PLATE): inactive; negative
mutagenic call (Test System: E. COLI, Strain/Indicator: WP2 UVRA, Metabolic Activation: NONE, Method: STANDARD PLATE): inactive; negative
mutagenic call (Test System: E. COLI, Strain/Indicator: WP2 UVRA, Metabolic Activation: RAT, LIVER, S-9, AROCLOR 1254, Method: STANDARD PLATE): inactive; negative
mutagenic call (Test System: E. COLI, Strain/Indicator: WP2 UVRA, Metabolic Activation: RAT, LIVER, S-9, Method: STANDARD PLATE): inactive; negative

CS(=O)(=O)O
mutagenic call [2]: inactive; negative
mutagenic call (Test System: AMES SALMONELLA TYPHIMURIUM, Strain/Indicator: TA100, Metabolic Activation: RAT, LIVER, S-9, AROCLOR 1254 (10%), Method: STANDARD PLATE): inactive; negative
mutagenic call [4]: inactive; negative
mutagenic call (Test System: AMES SALMONELLA TYPHIMURIUM, Strain/Indicator: TA1535, Metabolic Activation: RAT, LIVER, S-9, AROCLOR 1254 (10%), Method: STANDARD PLATE): inactive; negative

CCN(CC)c1cc(NC(C)=O)c(N=Nc2ccc([N+](=O)[O-])cc2)cc1OC
mutagenic call (Test System: AMES SALMONELLA TYPHIMURIUM, Strain/Indicator: TA98, Metabolic Activation: NONE, Method: STANDARD PLATE): active; positive
mutagenic call [1]: active; positive
mutagenic call [2]: inactive; negative
mutagenic call [3]: active; positive
mutagenic call [4]: inactive; negative
mutagenic call (Test System: AMES SALMONELLA TYPHIMURIUM, Strain/Indicator: TA1535, Metabolic Activation: RAT, LIVER, S-9, AROCLOR 1254, Method: STANDARD PLATE): active; positive
mutagenic call [5]: inactive; negative
mutagenic call [6]: active; positive
mutagenic call (Test System: MOUSE LYMPHOMA, Strain/Indicator: L5178Y (TK+/TK-), Metabolic Activation: NONE, Method: SUSPENSION/PLATE): inactive; negative
mutagenic call (Test System: MOUSE LYMPHOMA, Strain/Indicator: L5178Y (TK+/TK-), Metabolic Activation: RAT, LIVER, S-9, AROCLOR 1254, Method: SUSPENSION/PLATE): inactive; negative
mutagenic call (Test System: UDS RAT HEPATOCYTES, Strain/Indicator: THY INCORP, Metabolic Activation: NONE, Method: AUTORADIOGRAPHY): inactive; negative
